The pEC50 is the negative decadic logarithm of the EC50, by convention in mol/L. As a reminder, the Emax is the greatest response seen or fitted, relative to the assay's reference.

The subject of one assay is A375. The experiment in a line: Compounds cellular killing in A375. The note with it: Homo sapiens, A375, 6 days, Cell Titer-Glo. The assay is classed as cell-based, human. The protocol: (§1) Seeding cells A375 (1E3/well) or Calu-6 (2E3/well) into 96-well plate (Greiner: 655090), 100 ul/well. Incubation at 37° C., 5% CO2, overnight.
(§2) Adding the fresh growth-medium containing the varying concentrations of compounds, 50 ul/well.
(§3) Incubation at 37° C., 5% CO2, 6 days.
(§4) The cell viability detected by Cell Titer-Glo (Promega, G7573). Add 70 µL/well of CellTiter-Glo® Reagent in each well.
(§5) Allow the plates to incubate at room temperature for 10 minutes to stabilize luminescent signal.
(§6) Analyze with Microplate Reader.
(§7) Seeding cells A375 ([…] or Calu-6 (2E3/well) into 96-well plate (Greiner: 655090), 100 ul/well. Incubation at 37° C., […], overnight.
(In general: Cellular ATP, detected with luciferase, serves as a proxy for viable cell number.)

For another assay, the system named is Calu-6. The experiment in a line: Compounds cellular killing in Calu-6. The class given is cell-based, human. The note with it: Homo sapiens, Calu-6, 6 days, Cell Titer-Glo. The protocol: as §1, §2, §3, §4, §5, §6, §7

pEC50: −log10 of the molar value.

Turning to `CCc1c2c(nc3ccc(O)cc13)-c1cc3c(c(=O)n1C2)COC(=O)[C@]3(O)CC` [Example 1-C, reference compound], the pEC50 in the assay with A375 (A-375) was 8.37; in the assay on Calu-6, 8.59. Besides, the Emax in the assay with A375 (A-375) amounted to 99.5%.
`CC[C@@]1(O)C(=O)OCc2c1cc1n(c2=O)Cc2c-1nc1cc(C)c(C)c3c1c2[C@@H](NC(=O)CO)CC3` [Example 2-1, N-((1S,9S)-9-ethyl-9-hydroxy-4,5-dimethyl-10,13-dioxo-2,3,9,10,13,15-hexahydro-1H,12H-benzo[de]pyrano[3′,4′:6,7]indolizino[1,2-b]quinolin-1-yl)-2-hydroxyacetamide]: the pEC50 in the assay with A375 (A-375, […]) was 7.64; with Calu-6 (Calu-6, […]), 8.00. The Emax was determined as 98% in the assay with A375 (A-375, […]) and 98% in the assay on Calu-6 (Calu-6, […]).
In the assay with A375 (A-375, […]), `CC[C@@]1(O)C(=O)OCc2c1cc1n(c2=O)Cc2c-1nc1cc(F)c(C)c3c1c2[C@@H](NC(=O)C1CCC1CO)CC3` (stereo partly drawn) [Example 2-2, N-((1S,9S)-9-ethyl-5-fluoro-9-hydroxy-4-methyl-10,13-dioxo-2,3,9,10,13,15-hexahydro-1H,12H-benzo[de]pyrano[3′,4′:6,7]indolizino[1,2-b]quinolin-1-yl)-2-(hydroxymethyl)cyclobutane-1-carboxamide] had a pEC50 of 8.28 and an Emax of 99.9%. In the assay with Calu-6 (Calu-6, […]), this molecule gave a pEC50 of 8.89 and an Emax of 98.7%.
For `CC[C@@]1(O)C(=O)OCc2c1cc1n(c2=O)Cc2c-1nc1cc(F)c(C)c3c1c2[C@@H](NC(=O)C(F)(F)CO)CC3` [Example 2-3, N-((1S,9S)-9-ethyl-5-fluoro-9-hydroxy-4-methyl-10,13-dioxo-2,3,9,10,13,15-hexahydro-1H,12H-benzo[de]pyrano[3′,4′:6,7]indolizino[1,2-b]quinolin-1-yl)-2,2-difluoro-3-hydroxypropanamide], in that order: 8.68, 100%, 9.10 and 98.5%.
The like results for `CC[C@@]1(O)C(=O)OCc2c1cc1n(c2=O)Cc2c-1nc1cc(F)c(OC)c3c1c2[C@@H](NC(=O)CO)CC3` [Example 2-4, N-((1S,9S)-9-ethyl-5-fluoro-9-hydroxy-4-methoxy-10,13-dioxo-2,3,9,10,13,15-hexahydro-1H,12H-benzo[de]pyrano[3′,4′:6,7]indolizino[1,2-b]quinolin-1-yl)-2-hydroxyacetamide] were, in that order, 7.74, 99.3%, 8.31 and 99.7%.
With `CC[C@@]1(O)C(=O)OCc2c1cc1n(c2=O)Cc2c-1nc1cc(F)c(C)c3c1c2[C@@H](N(C)CCO)CC3` [Example 2-5, (1S,9S)-9-ethyl-5-fluoro-9-hydroxy-1-((2-hydroxyethyl)(methyl)amino)-4-methyl-1,2,3,9,12,15-hexahydro-10H,13H-benzo[de]pyrano[3′,4′:6,7]indolizino[1,2-b]quinoline-10,13-dione], the pEC50 is 9.05 in the assay with A375 (A-375) and 9.52 with Calu-6. The Emax in the assay with A375 (A-375) was 98.8%; in the assay on Calu-6 (Calu-6, […]), 98.9%.
For `CC[C@@]1(O)C(=O)OCc2c1cc1n(c2=O)Cc2c-1nc1cc(F)c(C)c3c1c2[C@@H](NC(=O)OCCO)CC3` [Example 2-6, 2-hydroxyethyl ((1S,9S)-9-ethyl-5-fluoro-9-hydroxy-4-methyl-10,13-dioxo-2,3,9,10,13,15-hexahydro-1H,12H-benzo[de]pyrano[3′,4′:6,7]indolizino[1,2-b]quinolin-1-yl)carbamate], in that order: 8.85, 9.52, 99.9% and 96.9%.
In the assay with A375 (A-375, […]), `CC[C@@]1(O)C(=O)OCc2c1cc1n(c2=O)Cc2c-1nc1cc(Cl)c(C)c3c1c2[C@@H](NC(=O)CO)CC3` [Example 2-7, N-((1S,9S)-5-chloro-9-ethyl-9-hydroxy-4-methyl-10,13-dioxo-2,3,9,10,13,15-hexahydro-1H,12H-benzo[de]pyrano[3′,4′:6,7]indolizino[1,2-b]quinolin-1-yl)-2-hydroxyacetamide] gave a pEC50 of 8.70 and an Emax of 99.1%. Also, in the assay with Calu-6 (Calu-6, […]), the pEC50 is 9.15 and the Emax came to 99.1%.
In the assay on A375 (A-375, […]), `CC[C@@]1(O)C(=O)OCc2c1cc1n(c2=O)Cc2c-1nc1cc(Cl)c(C)c3c1c2[C@@H](NC(=O)C(C)(C)CO)CC3` [Example 2-8, N-((1S,9S)-5-chloro-9-ethyl-9-hydroxy-4-methyl-10,13-dioxo-2,3,9,10,13,15-hexahydro-1H,12H-benzo[de]pyrano[3′,4′:6,7]indolizino[1,2-b]quinolin-1-yl)-3-hydroxy-2,2-dimethylpropanamide] had a pEC50 of 8.92 and an Emax of 98.6%. In the assay on Calu-6 (Calu-6, […]), this molecule gave a negative logarithm of the EC50 (pEC50) of 9.40 and an Emax of 99.3%.
For the molecule `CC[C@@]1(O)C(=O)OCc2c1cc1n(c2=O)Cc2c-1nc1cc3c(c4c1c2[C@@H](NC(=O)CO)CC4)OCO3` [Example 2-11, N-((1S,10S)-10-ethyl-10-hydroxy-11,14-dioxo-2,3,10,11,14,16-hexahydro-1H,13H-benzo[de][1,3]dioxolo[4,5-g]pyrano[3′,4′:6,7]indolizino[1,2-b]quinolin-1-yl)-2-hydroxyacetamide], the pEC50 was 7.99 in the assay with A375 (A-375) and 8.49 with Calu-6. For the same molecule, the Emax in the assay on A375 (A-375) amounted to 99.7%; with Calu-6 (Calu-6, […]) it was 99.6%.
Turning to `CC[C@@]1(O)C(=O)OCc2c1cc1n(c2=O)Cc2c-1nc1cc(Cl)cc3c1c2[C@@H](NC(=O)CO)CC3` [Example 2-12, N-((1S,9S)-5-chloro-9-ethyl-9-hydroxy-10,13-dioxo-2,3,9,10,13,15-hexahydro-1H,12H-benzo[de]pyrano[3′,4′:6,7]indolizino[1,2-b]quinolin-1-yl)-2-hydroxyacetamide], in the assay with A375 (A-375, […]), the pEC50 is 8.17 and the Emax came to 99.9%. Also, in the assay with Calu-6 (Calu-6, […]), the pEC50 was 8.36 and the Emax was 98.9%.
As to `CC[C@@]1(O)C(=O)OCc2c1cc1n(c2=O)Cc2c-1nc1cc(Cl)cc3c1c2[C@H](NC(=O)CO)CC3` [Example 2-13, N-((1R,9S)-5-chloro-9-ethyl-9-hydroxy-10,13-dioxo-2,3,9,10,13,15-hexahydro-1H,12H-benzo[de]pyrano[3′,4′:6,7]indolizino[1,2-b]quinolin-1-yl)-2-hydroxyacetamide], the pEC50 in the assay on A375 (A-375, […]) is 8.10; in the assay with Calu-6 (Calu-6, […]) it was 8.24. The Emax in the assay with A375 (A-375, […]) worked out at 99.6%; with Calu-6 (Calu-6, […]) it was 98.4%.
For the molecule `CC[C@@]1(O)C(=O)OCc2c1cc1n(c2=O)Cc2c-1nc1cc(F)c(C)c3c1c2C(CCCO)CC3` (stereo partly drawn) [Example 2-14, (9S)-9-ethyl-5-fluoro-9-hydroxy-1-(3-hydroxypropyl)-4-methyl-1,2,3,9,12,15-hexahydro-10H,13H-benzo[de]pyrano[3′,4′:6,7]indolizino[1,2-b]quinoline-10,13-dione], the pEC50 in the assay with A375 (A-375) was 9.52; in the assay with Calu-6 it was 10.00. The Emax in the assay with A375 (A-375) was found to be 100%; in the assay with Calu-6 (Calu-6, […]) it was 99%.
In the case of `CC[C@@]1(O)C(=O)OCc2c1cc1n(c2=O)Cc2c-1nc1cc(F)c(C)c3c1c2[C@@H](NC(=O)C[C@@H](O)C[N+](C)(C)C)CC3` [Example 2-15, (R)-4-(((1S,9S)-9-ethyl-5-fluoro-9-hydroxy-4-methyl-10,13-dioxo-2,3,9,10,13,15-hexahydro-1H,12H-benzo[de]pyrano[3′,4′:6,7]indolizino[1,2-b]quinolin-1-yl)amino)-2-hydroxy-N,N,N-trimethyl-4-oxobutan-1-aminium], in the assay on A375 (A-375, […]), the pEC50 is 6.36 and the Emax was found to be 73.5%. In the assay on Calu-6 (Calu-6, […]), this molecule had a pEC50 of 6.75 and an Emax of 90.1%.
In the assay on A375 (A-375, […]), `CC[C@@]1(O)C(=O)OCc2c1cc1n(c2=O)Cc2c-1nc1cc(F)c(C)c3c1c2[C@@H](NC(=O)CC(O)C[N+](C)(C)C)CC3` (stereo partly drawn) [Example 2-16, 4-(((1S,9S)-9-ethyl-5-fluoro-9-hydroxy-4-methyl-10,13-dioxo-2,3,9,10,13,15-hexahydro-1H,12H-benzo[de]pyrano[3′,4′:6,7]indolizino[1,2-b]quinolin-1-yl)amino)-2-hydroxy-N,N,N-trimethyl-4-oxobutan-1-aminium] had a pEC50 of 6.31 and an Emax of 77.1%. In the assay with Calu-6 (Calu-6, […]), this molecule had a pEC50 of 6.61 and an Emax of 87.9%.
For `CC[C@@]1(O)C(=O)OCc2c1cc1n(c2=O)Cc2c-1nc1cc(F)c(C)c3c1c2[C@@H](NC(=O)[C@@H]1C[C@@H](O)CN1C(C)=O)CC3` [Example 2-17, (2S,4R)-1-acetyl-N-((1S,9S)-9-ethyl-5-fluoro-9-hydroxy-4-methyl-10,13-dioxo-2,3,9,10,13,15-hexahydro-1H,12H-benzo[de]pyrano[3′,4′:6,7]indolizino[1,2-b]quinolin-1-yl)-4-hydroxypyrrolidine-2-carboxamide], in that order: 6.91, 94.9%, 7.35 and 94.6%.
As to `CC[C@@]1(O)C(=O)OCc2c1cc1n(c2=O)Cc2c-1nc1cc(F)c(C)c3c1c2[C@@H](NC(=O)c1ccc(CO)o1)CC3` [Example 2-19, N-((1S,9S)-9-ethyl-5-fluoro-9-hydroxy-4-methyl-10,13-dioxo-2,3,9,10,13,15-hexahydro-1H,12H-benzo[de]pyrano[3′,4′:6,7]indolizino[1,2-b]quinolin-1-yl)-5-(hydroxymethyl)furan-2-carboxamide], the pEC50 was 8.34 with A375 (A-375) and 9.00 with Calu-6. Further, the Emax with A375 (A-375) was determined as 99.7%; in the assay with Calu-6 (Calu-6, […]) it was 99.3%.
